25 molecules from ChEMBL document CHEMBL1146178, “Synthesis and antiviral activity against tobacco mosaic virus and 3D-QSAR of alpha-substituted-1,2,3-thiadiazoleacetamides” (Bioorg Med Chem Lett, 2006) can be followed below.

One assay concerns Tobacco mosaic virus. As to the kind of experiment: Antiviral activity against TMV at 500 mg/L. Format: functional.
In assay [1] the test system is Hepatitis B virus. As to the kind of experiment: Antiviral activity against HBV in HepG2 2.2.15 cells assessed as inhibition of HBeAg at 0.6 umol/mL. Format: functional.
Assay [2] concerns Hepatitis B virus. As to the kind of experiment: Antiviral activity against HBV in HepG2 2.2.15 cells assessed as inhibition of viral DNA synthesis. In kind it is functional, organism-based.
In assay [3] the test system is Hepatitis B virus. Kind of assay: Antiviral activity against HBV in HepG2 2.2.15 cells assessed as inhibition of HBsAg at 0.4 umol/mL. Format: functional.
The subject of assay [4] is Hepatitis B virus. Kind of assay: Antiviral activity against HBV in HepG2 2.2.15 cells assessed as inhibition of HBsAg at 0.6 umol/mL. In kind it is functional.
The subject of assay [5] is Hepatitis B virus. Kind of assay: Antiviral activity against HBV in HepG2 2.2.15 cells assessed as inhibition of HBeAg at 0.4 umol/mL. In kind it is functional.

As for `CNC(=O)C(Oc1ccccc1Br)c1csnn1` (stereo not given), the inhibition at 500 µg/mL with Tobacco mosaic virus is 44%.

On to `CNC(=O)C(SCc1ccc(Cl)cc1)c1csnn1` (stereo not given), for which, in the assay with Tobacco mosaic virus, the inhibition at 500 µg/mL worked out at 35%.

Turning to `CNC(=O)C(Oc1cc(C)ccc1Cl)c1csnn1` (stereo not given), the Inhibition worked out at 15.5% with Hepatitis B virus [1], 52.9% in the assay on Hepatitis B virus [3], 88.6% with Hepatitis B virus [4] and 44.2% in the assay on Hepatitis B virus [5]. Besides, the IC50 in the assay with Hepatitis B virus [2] turned out to be 400 µM. For the same molecule, at 500 µg/mL the inhibition in the assay on Tobacco mosaic virus was 56%. Consider `CNC(=O)C(c1csnn1)n1cncn1` (stereo not given), for which the inhibition at 500 µg/mL in the assay on Tobacco mosaic virus was 42%. The same measure, in the same setting: for `CNC(=O)C(Oc1ccc2ccccc2c1)c1csnn1` (stereo not given) the value was 44%; for `CNC(=O)C(Oc1ccccc1Cl)c1csnn1` (stereo not given), 53%. On the same count and under the same terms, as for `CNC(=O)C(Sc1ccc(Cl)cc1)c1csnn1` (stereo not given), the figure is 42%; as for `CNC(=O)C(Sc1ccccc1F)c1csnn1` (stereo not given), 37%. Still for that read-out and setting: as for `CNC(=O)C(Sc1ccc(F)cc1)c1csnn1` (stereo not given), the figure is 33%; as for `CNC(=O)C(Sc1nnc(-c2c(C)nn(C)c2SC)s1)c1csnn1` (stereo not given), 35%; as for `CNC(=O)C(c1csnn1)S(=O)(=O)c1ccc(F)cc1` (stereo not given), 19%. Molecule `CNC(=O)C(c1csnn1)[S+]([O-])c1ccccc1F` (stereo not given) showed an inhibition at 500 µg/mL in the assay with Tobacco mosaic virus of 19%. Still for that read-out and setting: for `CNC(=O)C(c1csnn1)[S+]([O-])c1ccc(Cl)cc1` (stereo not given) the value was 31%; for `CNC(=O)C(Oc1ccc(Br)cc1)c1csnn1` (stereo not given), 64%; for `CNC(=O)C(c1csnn1)S(=O)(=O)c1cc(C)ccc1C` (stereo not given), 12%. `CNC(=O)C(c1csnn1)S(=O)(=O)c1ccccc1F` (stereo not given) returned an inhibition at 500 µg/mL with Tobacco mosaic virus of 82%. Same read-out and setting: for `CNC(=O)C(Oc1cccc(C)c1)c1csnn1` (stereo not given) the value was 5.5%; for `CNC(=O)C(c1csnn1)[S+]([O-])c1ccc(F)cc1` (stereo not given), 11%; for `CNC(=O)C(c1csnn1)[S+]([O-])Cc1ccc(Cl)cc1` (stereo not given), 20%. The same measure, in the same setting: for `CNC(=O)C(c1csnn1)S(=O)(=O)c1ccc(OC)cc1` (stereo not given) the value was 0%; for `CNC(=O)C(Sc1cc(C)ccc1C)c1csnn1` (stereo not given), 0%. Still for that read-out and setting: as for `CNC(=O)C(Sc1cc(Cl)ccc1Cl)c1csnn1` (stereo not given), the figure is 0%.

On to `CNC(=O)C(c1csnn1)S(=O)(=O)Cc1ccc(Cl)cc1` (stereo not given), for which, in the assay with Tobacco mosaic virus, the inhibition at 500 µg/mL was 51%.

In the assay on Tobacco mosaic virus, `CNC(=O)C(Sc1nc2nc(C)cc(C)n2n1)c1csnn1` (stereo not given) returned an inhibition at 500 µg/mL of 5%. The same measure, in the same setting: as for `CNC(=O)C(c1csnn1)[S+]([O-])c1cc(C)ccc1C` (stereo not given), the figure is 0%.

Broadly, the inhibition is how much of the control response was suppressed. A low value points to a weak effect. A word on the Inhibition: it is the relative decrease from the control value, in per cent. A word on the IC50: it is the point on the concentration scale where inhibition reaches its midpoint.
